ChEMBL document CHEMBL1201862, “PubChem BioAssay data set” (2004)
Active and inactive are the calls of the source.

What was measured:
[1] = target: G2/mitotic-specific cyclin-B1 (Homo sapiens, UniProt P14635); assay: Counterscreen assay for inhibitors of Wee1 degradation: dose response cell-based assay to identify inhibitors of cyclin B degradation. [Related pubchem assays: 1410, 1321 ]; format: functional
[2] = target: Sphingosine 1-phosphate receptor 2 (Homo sapiens, UniProt O95136); assay: Dose Response Cell Based Assay for Antagonists of the S1P2 Receptor. [Related pubchem assays: 856, 736 ]; format: functional
Wee1-like protein kinase = Wee1-like protein kinase (Homo sapiens, UniProt P30291); assay: Dose Response Cell-based Assay for Inhibitors of Wee1 Degradation. [Related pubchem assays: 1410, 1321 ]; format: functional
[3] = target: T1, Heat shock factor protein 1 (Mus musculus, UniProt P38532); assay: inhibition of MG132-induced HSE-luciferase signal, confirmation, cell-based, NIH3T3, luminescence, dose retest (AID 2382); format: functional;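 also: NIH3T3 fibroblasts with HSF1-driven luciferase reporter stressed by proteasome inhibitor MG132; luminescence from HSF1-driven luciferase expression after 8 hours of MG132 stress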
T1 sequence (P38532 whole entry): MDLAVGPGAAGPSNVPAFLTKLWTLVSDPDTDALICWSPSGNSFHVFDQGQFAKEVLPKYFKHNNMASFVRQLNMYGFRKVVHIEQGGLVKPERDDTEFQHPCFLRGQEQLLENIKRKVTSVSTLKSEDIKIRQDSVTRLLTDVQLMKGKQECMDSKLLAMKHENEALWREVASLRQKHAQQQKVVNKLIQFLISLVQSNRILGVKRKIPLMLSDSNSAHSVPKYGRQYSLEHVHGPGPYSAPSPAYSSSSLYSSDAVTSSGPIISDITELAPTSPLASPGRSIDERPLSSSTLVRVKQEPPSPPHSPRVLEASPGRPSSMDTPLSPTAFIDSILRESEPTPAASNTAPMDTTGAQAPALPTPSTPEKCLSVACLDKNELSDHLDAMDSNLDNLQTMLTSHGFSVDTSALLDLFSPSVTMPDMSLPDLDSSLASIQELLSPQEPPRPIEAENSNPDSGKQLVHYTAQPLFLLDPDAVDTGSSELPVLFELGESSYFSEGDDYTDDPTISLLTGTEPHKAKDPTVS

[4] = cytotoxicity in HPDE-C7 cells, cell-based, fluorescence, HTS (AID 430); format: functional; settings: Homo sapiens
[5] = cytotoxicity in KRAS-transformed pancreatic duct cells, primary screen, cell-based, fluorescence, HTS (AID 431); format: functional; settings: Homo sapiens;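 also: cell line used: HPDE-C7K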
[6] = cytotoxicity in HEK-293T cells, dose response, cytotoxicity control for TCR NF-kB inhibitor project, luminescence, T-cell screen hits (AID 489026); format: functional, cell-based;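 also: cells exposed to compound about 14 hours before the viability readout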
INS1 = assay: beta cell apoptosis inhibitors, cytokine rescue, dose response, luminescence, retest (AID 449756); format: functional, cell-based; settings: Rattus norvegicus;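 also: cell death triggered by IL-1 beta plus TNF-alpha plus IFN-gamma mixture; protective hits raise ATP signal compared with cytokine alone wells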
[7] = miR-122 activators in hepatoma reporter cells, dose response, cell-based, Huh7 psiCHECK-miR122, Renilla luciferase, cherry-picked (AID 651956); format: functional;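 also: huh7 hepatoma cells stably carrying a psiCHECK-2 miR-122 sensor plasmid; renilla luciferase signal reporting endogenous miR-122 activity after 48 h compound exposure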
[8] = inhibitors of PGC1a acetylation in cells, dose response, cell-based, cherry-picked samples (AID 720514); format: functional;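 also: potency may reflect raised or lowered acetylation signal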
[9] = HEK293T cytotoxicity, dose response, cytotoxicity control for miR-122 modulator project, cell-based, inhibitor set, cherry-pick, set 2 (AID 720697); format: functional
[10] = HEK293T cytotoxicity, dose response, cytotoxicity control for miR-122 modulator project, cell-based, activator set, cherry-pick (AID 720690); format: functional;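 also: HEK293T human cells scored for general mammalian cytotoxicity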
Major prion protein = Major prion protein (Homo sapiens, UniProt P04156); format: functional, cell-based
cells [11] = assay: cells
[12] = Shn3 3'UTR reporter inhibitors, dose response, cell-based, Clone20 osteoblasts, firefly luciferase, cherry-picked (AID 624132); format: functional;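 also: firefly luciferase luminescence from reporter carrying the Shn3 3'UTR in osteoblasts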
[13] = HepG2 cell cytotoxicity, dose response, cytotoxicity control for Shn3 inhibitor project, CellTiter-Glo, cherry-picked (AID 624134); format: functional, cell-based
[14] = control 3'UTR Renilla luciferase suppression, dose response, counter-screen for Shn3 inhibitor project, cell-based, Clone20-Shn3RL, cherry-picked (AID 624133); format: functional
Galanin receptor type 3 = target: T2, Galanin receptor type 3 (Homo sapiens, UniProt O60755); assay: Fluorescence-based cell-based primary high throughput dose response assay to identify antagonists of the Galanin Receptor 3 (GalR3).; format: functional
T2 sequence (O60755 whole entry): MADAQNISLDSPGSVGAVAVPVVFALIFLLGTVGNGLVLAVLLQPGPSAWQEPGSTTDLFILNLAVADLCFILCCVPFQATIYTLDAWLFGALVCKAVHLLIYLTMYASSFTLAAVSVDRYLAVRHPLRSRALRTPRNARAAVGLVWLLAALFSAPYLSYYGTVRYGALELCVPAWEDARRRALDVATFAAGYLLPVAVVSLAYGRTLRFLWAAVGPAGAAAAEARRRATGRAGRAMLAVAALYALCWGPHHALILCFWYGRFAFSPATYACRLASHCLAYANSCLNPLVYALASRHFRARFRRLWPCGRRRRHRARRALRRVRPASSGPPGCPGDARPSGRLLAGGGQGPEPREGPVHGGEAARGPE

cells [15] = format: functional, cell-based; settings: HEK-CNG
[16] = target: COUP transcription factor 2 (Homo sapiens, UniProt P24468); assay: Luminescence-based cell-based high throughput dose response assay to identify inhibitors of COUP-TFII (NR2F2).; format: functional;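 also: HEK293 cells transiently cotransfected with COUP-TFII expression vector and reporter; luciferase reporter luminescence driven by COUP-TFII from the pX2-168 reporter plasmid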
[17] = reduction of Shn3 3'UTR firefly luciferase signal, dose response, Schnurri-3 inhibitor project, cell-based, Clone20 osteoblasts, cherry-pick, set 2 (AID 720490); format: functional;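 also: actives lower the luminescence signal as inhibitors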
[18] = A549 cell cytotoxicity, dose response, cytotoxicity control, cherry-picks, 26 µM top dose (AID 1053119); format: functional, cell-based
[19] = inhibitors of fibronectin matrix deposition, dose response, AH1F cells, Alexa488-FN fluorescence, cherry-picks (AID 1035475); format: functional, cell-based
[20] = HepG2 cell cytotoxicity, dose response, cytotoxicity control, ATP luminescence, cherry-pick, set 6 (AID 1053125); format: functional, cell-based
cells [21] = settings: A549
HeLa = assay: HeLa cell cytotoxicity, dose response, cytotoxicity control, ATP luminescence, cherry-pick samples (AID 687004); format: functional, cell-based; settings: Homo sapiens
HEK293 = assay: HEK293T cell cytotoxicity, dose response, cytotoxicity control, ATP luminescence, cherry-pick samples (AID 687005); format: functional, cell-based; settings: Homo sapiens;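 also: cells exposed to compound for 48 hours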
[22] = HEK293 Cytotoxicity Assay Measured in Cell-Based System Using Plate Reader - 7071-01_Inhibitor_Dose_CherryPick_Activity_Set2.; format: functional
[23] = NIH/3T3 fibroblast cytotoxicity, dose response, cytotoxicity control, cell-based, plate reader, dry powder, set 2 (AID 652280); format: functional; settings: NIH3T3
[24] = NIH/3T3 fibroblast cytotoxicity, dose response, cytotoxicity control, cell-based, dry powder samples (AID 651844); format: functional; settings: NIH3T3
[25] = HepG2 cell cytotoxicity, dose response, cytotoxicity control, cherry-picks, set 5 (AID 1053118); format: functional, cell-based
[26] = HEK293 cell cytotoxicity, dose response, cytotoxicity control, cherry-picks, set 5 (AID 1053117); format: functional, cell-based
[27] = Late stage assay provider results from the probe development effort to identify inhibitors of the Plasmodium falciparum M18 Aspartyl Aminopeptidase (M18AAP): radiolabel-based cell-based dose response assay to identify compounds that inhibit P. falciparum growth in RBCs, Set 2..; format: functional
[28] = A375 melanoma cell viability loss, dose response, counter-screen for MITF inhibitor project, CellTiter-Glo luminescence, dry powder, set 4 (AID 624364); format: functional, cell-based; settings: A-375;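 also: A375 melanoma cells are MITF independent so this is a counter screen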
[29] = A375 melanoma cell cytotoxicity, dose response, counter-screen for MITF inhibitor project, CellTiter-Glo luminescence, dry powder, set 2 (AID 624489); format: functional, cell-based; settings: A-375;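 also: actives are compounds lowering A375 viability meaning general cytotoxicity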
[30] = target: Potassium channel subfamily K member 3 (Rattus norvegicus, UniProt O54912); assay: SAR analysis for the identification of selective inhibitors of the two-pore domain potassium channel TASK1(KCNK3):Automated Electrophysiology.; format: functional
[31] = target: Potassium channel subfamily K member 3 (Homo sapiens, UniProt O14649); assay: TASK1 (KCNK3) potassium channel inhibitors, SAR follow-up, CHO cells, FluxOR thallium flux (AID 652212); format: functional
[32] = HEK293 cell cytotoxicity, dose response, cytotoxicity control, ATP luminescence, dry powder, Set6 (AID 743142); format: functional, cell-based
[33] = A549 cell cytotoxicity, dose response, cytotoxicity control, CellTiter-Glo luminescence, dry powder, set 3 (AID 743146); format: functional, cell-based
[34] = target: T3, Nuclear receptor subfamily 0 group B member 1 (Homo sapiens, UniProt P51843); assay: Luminescence-based cell-based high throughput dose response assay for inhibitors of the orphan nuclear receptor subfamily 0, group B, member 1 (DAX1; NR0B1). [Related pubchem assays (depositor defined):AID504766, AID504790]; format: functional
T3 sequence (P51843 whole entry): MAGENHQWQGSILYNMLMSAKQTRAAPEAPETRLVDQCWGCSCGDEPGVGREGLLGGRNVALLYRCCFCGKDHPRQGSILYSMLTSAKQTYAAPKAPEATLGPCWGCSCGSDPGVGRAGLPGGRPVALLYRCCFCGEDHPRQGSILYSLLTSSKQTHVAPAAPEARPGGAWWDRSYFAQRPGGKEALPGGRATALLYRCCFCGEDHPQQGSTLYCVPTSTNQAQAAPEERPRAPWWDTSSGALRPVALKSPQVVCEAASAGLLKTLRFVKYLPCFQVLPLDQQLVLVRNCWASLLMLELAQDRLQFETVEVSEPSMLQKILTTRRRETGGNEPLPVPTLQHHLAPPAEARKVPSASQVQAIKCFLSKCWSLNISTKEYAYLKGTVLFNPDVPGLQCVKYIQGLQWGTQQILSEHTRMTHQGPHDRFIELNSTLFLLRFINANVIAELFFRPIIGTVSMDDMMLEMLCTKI

[35] = target: T3, Nuclear receptor subfamily 0 group B member 1; format: functional, cell-based
[36] = CFTR ΔF508 corrector activity in bronchial cells, dose response, human bronchial epithelial cells, plate reader, cherry-pick, two tests (AID 743267); format: functional, cell-based
[37] = HepG2 cell cytotoxicity, dose response, cytotoxicity control, ATP luminescence, cherry-pick, activator set 2 (AID 1053143); format: functional, cell-based
[38] = HepG2 cell cytotoxicity, dose response, cytotoxicity control, CellTiter-Glo luminescence, cherry-pick, set 2 (AID 743395); format: functional

O=S(=O)(C/C(=C/CO)S(=O)(=O)c1ccccc1)c1ccccc1
EC50 [1]: > 5.53 µM (active) | IC50 [2]: 3.07 µM (active) | EC50 (Wee1-like protein kinase): > 5.53 µM (active) | EC50 [3]: 4.31 µM (active) | EC50 [4]: 1.92 µM (active) | EC50 [5]: 2.5 µM (active) | IC50 [6]: 67.1 µM (inactive) | AC50 (INS1): 9.58 µM (active) | AC50 [7]: 6.77 µM (active) | AC50 [8]: 3.28 µM (active) | AC50 [9]: 4.09 µM (active) | AC50 [10]: 4.73 µM (active) | IC50 (Major prion protein): 9.14 µM (active) | IC50 (cells [11]): 42.9 µM (inactive)

O=C(CSc1nnc(-c2cccnc2)s1)Nc1ccnc2ccccc12
AC50 [12]: 0.661 µM (active) | AC50 [13]: 39.3 µM (active) | AC50 [14]: 2.34 µM (active) | IC50 (Galanin receptor type 3): 1.18 µM (active) | EC50 (cells [15]): > 29.9 µM (inactive) | IC50 [16]: 5.33 µM (active) | AC50 [17]: 1.19 µM (active)

COc1ccc(Cl)cc1NC(=O)CSc1nc(Nc2ccccc2)nc(N2CCOCC2)n1
AC50 [18]: > 52 µM (inactive) | AC50 [19]: 64.2 µM (active)

CCOc1ccc2nc(NCCCNS(=O)(=O)c3ccc(F)cc3)c(C#N)cc2c1
AC50 [20]: > 52 µM (inactive)

Cc1noc(C)c1-c1ccc(C(=O)NCCc2ccccc2)c2occc12
AC50 (cells [21]): > 52 µM (inactive)

CC(C)CC#Cc1ccc2c(c1)O[C@H](CN(C)C(=O)C1CCC1)[C@@H](C)CN([C@@H](C)CO)S2(=O)=O
AC50 (HeLa): > 52 µM (inactive) | AC50 (HEK293): 15.8 µM (active) | AC50 [22]: 15.8 µM (active)

CC(C)N1C[C@H](C)[C@@H](CN(C)Cc2ccc(Oc3ccccc3)cc2)Oc2c(NC(=O)C3CCN(C)CC3)cccc2C1=O
AC50 [23]: 8.58 µM (active) | AC50 [24]: 8.58 µM (active)

O=S(=O)(c1ccccc1F)N1CC[C@@H]2[C@@H](CO)Nc3ccc(-c4cccc(F)c4)cc3[C@@H]21
AC50 [25]: 32.6 µM (active) | AC50 [26]: > 52 µM (inactive) | AC50 [19]: 39.9 µM (active)

COc1ccc(CCN(C)c2c3ccccc3nc3ccccc23)cc1OC
IC50 [27]: 4.5 µM (active)

C=CCNC1=C(N2CCN(C)CC2)C(=O)c2ccccc2C1=O
AC50 [28]: 34.4 µM (active) | AC50 [29]: 15.9 µM (active)

Cc1cccc(C(=O)Nc2cccc(NC(=O)c3ccncc3)c2)c1
IC50 [30]: 2.14 µM (active) | IC50 [31]: 0.162 µM (active)

O=C(CCNC(=O)c1ccc(Cl)c(Cl)c1)N[C@@H]1CCCc2ccccc21
AC50 [32]: 3.34 µM (active) | AC50 [33]: 26 µM (active)

O=C(CCCCCCC(=O)Nc1ccccc1)NO [VORINOSTAT]
IC50 [34]: > 67.6 µM (inactive) | IC50 [35]: 0.747 µM (active) | AC50 [36]: 0.933 µM (active) | AC50 [37]: 1.75 µM (active) | AbsAC35_uM [38]: 0.468 µM
